Values joined by “and” are separate entries in the source; they are usually repeats but may differ in a detail not shown here. Equal entries are not always repeated.
Columns and labels:
[1] = system: Blumeria qraminis f. sp. tritici (Erysiphe qraminis f. sp. tritici); assay: Blumeria graminis f. sp. tritici / wheat / leaf disc preventative (powdery mildew on wheat); format: in vivo; details: foliar, wheat leaf segments cv. Kanzler, inoculated 1 day after application, assessed 6-8 days after application, read-out: inhibit fungal infestation (percent disease control compared to untreated)
Pythium ultimum = Pythium ultimum / liquid culture (seedling damping off); format: cell-based; details: Globisporangium ultimum, liquid culture in PDB, 24° C., 2-3 days after application, read-out: inhibit fungal infestation (inhibition of growth determined photometrically)
Phytophthora infestans = assay: whole plant or invertebrate; format: in vivo; details: in Solanum lycopersicum, foliar, read-out: inhibit fungal infestation (percent disease control compared to untreated)
Plasmopara viticola = Plasmopara viticola / grape / leaf disc preventative; format: in vivo; details: foliar, grape vine leaf disks, inoculated 1 day after application, assessed 6-8 days after application, read-out: inhibit fungal infestation (percent disease control compared to untreated)

Row | SMILES | inhibition at 200 ppm [1] [%] | melting point | inhibition at 200 ppm (Pythium ultimum) [%] | inhibition at 200 ppm (Phytophthora infestans) [%] | inhibition at 200 ppm (Plasmopara viticola) [%]
1 | CSC(Oc1cc(Cl)c2ncc(Br)cc2c1)C(=O)NCc1ccno1 (stereo not drawn) [Compound 1] | ≥ 80 | 143 °C |  |  | 
2 | CSC(Oc1ccc2ncc(I)cc2c1)C(=O)NCc1ccno1 (stereo not drawn) [Compound 2] | ≥ 80 | 153 °C | ≥ 80 |  | 
3 | CSC(Oc1ccc2ncc(Br)cc2c1)C(=O)NCc1ccno1 (stereo not drawn) [Compound 3] | ≥ 80 | 140 °C | ≥ 80 |  | 
4 | C#Cc1cnc2ccc(OC(SC)C(=O)NCc3ccno3)cc2c1 (stereo not drawn) [Compound 4] | ≥ 80 | 115 °C | ≥ 80 | ≥ 80 | 
5 | CSC(Oc1ccc2ncc(Br)cc2c1)C(=O)NCc1ccccn1 (stereo not drawn) [Compound 5] |  | 104 °C | ≥ 80 |  | 
6 | CSC(Oc1ccc2ncc(I)cc2c1)C(=O)NCc1ccccn1 (stereo not drawn) [Compound 6] | ≥ 80 | 109 °C | ≥ 80 |  | 
7 | C#Cc1cnc2c(C)cc(OC(SC)C(=O)NC(C)(C)c3cccc(C)n3)cc2c1 (stereo not drawn) [Compound 16] | ≥ 80 | 123 °C | ≥ 80 |  | ≥ 80
8 | C#Cc1cnc2c(C)cc(OC(SC)C(=O)NC(C)(C)c3cc(C)ccn3)cc2c1 (stereo not drawn) [Compound 17] | ≥ 80 | 82 °C | ≥ 80 |  | ≥ 80
9 | C#Cc1cnc2ccc(OC(SC)C(=O)NC(C)(C)c3ncc(Cl)s3)cc2c1 (stereo not drawn) [Compound 19] | ≥ 80 | 125 °C | ≥ 80 |  | ≥ 80
10 | C#Cc1cnc2c(F)cc(OC(SC)C(=O)NC(C)(C)c3cc(CC)on3)cc2c1 (stereo not drawn) [Compound 21] | ≥ 80 | 133 °C | ≥ 80 | ≥ 80 | ≥ 80
11 | C#Cc1cnc2c(Cl)cc(OC(SC)C(=O)NC(C)(C)c3cc(CC)on3)cc2c1 (stereo not drawn) [Compound 22] | ≥ 80 | 157 °C | ≥ 80 | ≥ 80 | ≥ 80
12 | CCc1cc(C(C)(C)NC(=O)C(Oc2ccc3ncc(I)cc3c2)SC)no1 (stereo not drawn) [Compound 23] | ≥ 80 | 125 °C | ≥ 80 | ≥ 80 | ≥ 80
13 | C#Cc1cnc2ccc(OC(SC)C(=O)NCc3ccccn3)cc2c1 (stereo not drawn) [Compound 25] | ≥ 80 | 133 °C | ≥ 80 | ≥ 80 | 
14 | C#Cc1cnc2c(C)cc(OC(SC)C(=O)NC(C)(C)c3ccc(Cl)nc3)cc2c1 (stereo not drawn) [Compound 26] | ≥ 80 | 120 °C | ≥ 80 |  | ≥ 80
15 | C#Cc1cnc2ccc(OC(SC)C(=O)NC(C)(C)c3ccc(Cl)nc3)cc2c1 (stereo not drawn) [Compound 27] |  | 114 °C | ≥ 80 |  | 
16 | C#Cc1cnc2ccc(OC(SC)C(=O)NC(C)(C)c3nc(C)cs3)cc2c1 (stereo not drawn) [Compound 28] | ≥ 80 | 97 to 99 °C and 97 °C | ≥ 80 | ≥ 80 | ≥ 80
17 | C#Cc1cnc2ccc(OC(SC)C(=O)NCc3nccs3)cc2c1 (stereo not drawn) [Compound 29] | ≥ 80 | 178 °C | ≥ 80 |  | ≥ 80
